Laboratory results: patent publication US20110144029A1, “Model Systems and Materials for the Study and Treatment of Neurodegenerative Diseases” (BOARD OF REGENTS, THE UNIVERSITY OF TEXAS SYSTEM, priority 2009, published 2011)

Key:
[1] = tested on: cerebellar granule neurons; experiment: MTT assay in cerebellar granule neurons; format: cell-based, rat; conditions: 24 h peptide treatment
Experimental: (§1) Cerebellar granule neurons were switched to serum-free medium containing various concentrations of T-peptide, K-peptide, Core-peptide, V-peptide, VV-peptide, and T (L)-peptide. Cell viability was measured using two independent methods 24 h after peptide treatment and results are graphed. * indicates p<0.05 compared with control cells that were treated with HK: (4A) Results from Red/Green viability assay, (4B) Results from MTT assay;
Culturing and treatment of neurons: Cerebellar granule neurons were cultured from 7-8 day old rats as previously described. The neurons were plated in 24-well with poly-L-lysine coated glass coverslips at a density of ˜1 million cells/well in Basal Eagle's Medium with Earle's salts (BME) supplemented with 10% FCS, 25 mM KCl, 2 mM glutamine and […] gentamicin. […]
(§2) Cell viability quantification: Cell viability was quantified using the Live/Dead assays with a commercially available kit (Invitrogen). This is a two-color fluorescence assay utilizing two cell-permeable compounds, calcein acetoxymethyl (calcein AM) and ethidium homodimer-1 (EthD-1). […] Cell viability was also analyzed using the MTT [3-(4,5-Dimethylthiazol-2-yl)-2,5-diphenyltetrazolium bromide] assay based on the evaluation of mitochondrial function. […] Absorbance was measured spectrophotometrically at 570 nm after an overnight incubation at room temperature.

cortical neurons = experiment: Live/Dead viability assay in cortical neurons; format: cell-based; conditions: 24 h, serum-free medium
Experimental: (§3) Primary cultures and cell lines were treated in serum-free medium with T-peptide for 24 hours. Viability was quantified using the Live/Dead assay. * indicates p<0.05 compared with control cells that were treated with serum-free medium without peptide: (6A) Results from the analyses of cerebellar granule neurons, cortical neurons, and kidney fibroblasts cultured from rats, (6B) Results from the HT22 and HEK293 cell lines;
as §2, with “(EthD-1). Live cells have intracellular esterases that convert non-fluorescent calcein AM to the intensely green fluorescent calcein, which is retained within the cytoplasm of cells. Because dead cells have damaged membranes, EthD-1 enters and is fluorescent when bound to nucleic acids. EthD-1 stains the nuclei of damaged or dead cells.” for “(EthD-1).”

[2] = tested on: cerebellar granule neurons; experiment: Live/Dead (Red/Green) viability assay in cultured cerebellar granule neurons; format: cell-based, rat
Experimental: Neuronal cultures were switched to serum-free medium T-peptide, K-peptide, Core-peptide, V-peptide. VV-peptide, and T (L)-peptide. All peptides were used at 25 μM concentration. Phase contrast micrographs show appearance of the cultures after 24 h of peptide treatment. The Live/Dead viability assay was also performed. Nuclei of dead cells are stained red whereas cytoplasm of living cells are stained green. In the case of sick and dying cells, green staining is condensed;
as §1
Culturing and treatment of neurons: Cerebellar granule neurons were cultured from 7-8 day old rats as previously described. The neurons were plated in 24-well with poly-L-lysine coated glass coverslips at a density of ˜1 million cells/well in Basal Eagle's Medium with Earle's salts (BME) supplemented with 10% FCS, 25 mM KCl, 2 mM glutamine and […] gentamicin. To prevent mitosis of glial cells, cytosine arabinofuranoside ([…]) was added to culture 16-20 hrs after plating. Neuronal cultures were treated with peptides 6-7 days after plating. For treatment, the cultures were switched to serum-free medium containing 25 mM KCl (referred to as high potassium or HK medium). Although serum is required for proper maturation, after 5 days in culture, the neurons survive normally in the absence of serum provided depolarizing levels of KCl is added.
Cell viability quantification: Cell viability was quantified using the Live/Dead assays with a commercially available kit (Invitrogen). This is a two-color fluorescence assay utilizing two cell-permeable compounds, calcein acetoxymethyl (calcein AM) and ethidium homodimer-1 (EthD-1). Live cells have intracellular esterases that convert non-fluorescent calcein AM to the intensely green fluorescent calcein, which is retained within the cytoplasm of cells. Because dead cells have damaged membranes, EthD-1 enters and is fluorescent when bound to nucleic acids. EthD-1 stains the nuclei of damaged or dead cells. As recommended by the manufacturer, cells plated in wells with cover-slips were incubated in Live/Dead reagent (1 uM calcein AM and 4 uM EthD-1) for 30 min, and then mounted on slides. Cell viability was also analyzed using the MTT [3-(4,5-Dimethylthiazol-2-yl)-2,5-diphenyltetrazolium bromide] assay based on the evaluation of mitochondrial function. MTT assays were performed as previously described. Briefly, MTT (5 mg/ml in culture medium) was added to the culture medium and the cells incubated at 37° C. for 1 h. The assay was stopped by adding lysis buffer [20% sodium dodecyl sulfate (SDS) in 50% N,N-dimethylformamide, pH 4.7]. Absorbance was measured spectrophotometrically at 570 nm after an overnight incubation at room temperature.

[3] = tested on: human embryonic kidney HEK293T cell line; experiment: Live/Dead viability assay in HEK293T cell line; format: cell-based; conditions: 24 h, serum-free medium
Experimental: as §3
(§4) HT-22 and HEK293 cell culture: HT-22 cells were maintained in DMEM supplemented with 10% FCS, 50 U/ml penicillin and 50 μg/ml streptomycin. HEK293 were maintained in DMEM supplemented with 10% FCS, 50 U/ml penicillin and 50 μg/ml streptomycin. Both cell lines were treated with peptide at 70-80% confluency in serum-free media.
as §2

adult rat brains = experiment: Stereotaxic injection of peptide into adult rat brain; format: in vivo
Excerpt: Other aggregating peptides unrelated to tau are not neurotoxic. […] To examine this issue, we synthesized two peptides, STVIIE-R9 (designated at ST peptide), previously described by Pastor et al. (Pastor et al., 2008) and another de novo peptide, SQIVYA-R9. We were able to follow the kinetics of aggregation of both peptides into amyloid forming structures using the fluorescence of thioflavin-S and we characterized their morphology by TEM. […] Peptide induces neurodegeneration in the intact rat brain. […] To examine this issue, […] of T-peptide and K-peptide was sterotaxically injected into adult rat brains. Each animal received 2 injections—on one side into the striatum, and on the other side into the hippocampus. Rats were analyzed 1 week later. […] No damage is seen in the hippocampus however.

[4] = Live/Dead viability assay in HT-22 cell line; format: cell-based; conditions: 24 h, serum-free medium
Experimental: as §3, §4, §2

Primary glial cells = experiment: T-peptide toxicity in primary glial cells; format: cell-based; conditions: data not shown
kidney fibroblasts = experiment: Live/Dead viability assay in primary kidney fibroblasts; format: cell-based, rat; conditions: 24 h, serum-free medium
Experimental: as §3
Cultures of kidney fibroblasts and treatment with peptides: Kidneys were taken for 7-8 day old rats and placed in Dulbecco's Modified Eagle's Medium (DMEM). They were then diced and trypsinized for 8-12 mins. Trypsin was inactivated with trypsin inhibitor and centrifuged at 500 g for 1 min. Pellets were resuspended in DMEM and broken-up with a pasteur pipette 25 times, then centrifuged at 1000 g rpm for 1 min. […]
as §2

Question: For `CC[C@@H](C)[C@@H](NC(=O)[C@@H](CCC(N)=O)NC(=O)[C@H](NC(C)=O)C(C)C)C(=O)N[C@@H](C(=O)N[C@H](Cc1ccc(O)cc1)C(=O)N[C@H](CCCCN)C(=O)N[C@@H](CCCNC(=N)N)C(=O)N[C@@H](CCCNC(=N)N)C(=O)N[C@@H](CCCNC(=N)N)C(=O)N[C@@H](CCCNC(=N)N)C(=O)N[C@@H](CCCNC(=N)N)C(=O)N[C@@H](CCCNC(=N)N)C(=O)N[C@@H](CCCNC(=N)N)C(=O)N[C@@H](CCCNC(=N)N)C(=O)N[C@@H](CCCNC(=N)N)C(N)=O)C(C)C` [T-peptide, Ac-vqivyk-R9—NH2], which “MTT assay result (mitochondrial function, words)” value [1] is on record?
Answer: The value was “confirmed using the MTT assay”.

Question: What about the “sensitivity to T-peptide induced toxicity relative to cerebellar granule neurons” value (cortical neurons) of the same compound?
Answer: The value was “slightly less sensitive”.

Question: What about the “doses at which significant death is observable” value ([2]; 24 h, serum-free HK medium) of the same compound?
Answer: The value was ≥ 5 µM.

Question: And the “neurotoxicity / effect on neuronal survival” value ([2]; 24 h peptide treatment, HK medium)?
Answer: Its value is “induces cell death in a concentration-dependent manner”.

Question: And the “doses up to which the cell line is resistant” value [3]?
Answer: The value was “up to 50 μM”.

Question: And the “brain damage compared with K-peptide-injected rats” value (adult rat brains; 200 mg injected into striatum and hippocampus, analyzed 1 week later)?
Answer: The value was “display more damage than K-peptide-injected rats”.

Question: What about the “damage in corpus callosum” value (adult rat brains; 200 mg injected, 1 week) of the same compound?
Answer: The value was “shows damage and scarring”.

Question: What about the damage in hippocampus (adult rat brains; 200 mg injected, 1 week) of the same compound?
Answer: Its damage in hippocampus is “does not seem to show much damage”.

Question: What about the damage in striatum (adult rat brains; 200 mg injected, 1 week) of the same compound?
Answer: The damage in striatum was “shows obvious damage”.

Question: What about the lateral ventricle (adult rat brains; 200 mg injected, 1 week) of the same compound?
Answer: Its lateral ventricle is “enlarged”.

Question: And the “sensitivity to T-peptide toxicity” value [4]?
Answer: The value was “moderate level of sensitivity”.

Question: What about the “sensitivity to T-peptide toxicity relative to neurons” value (Primary glial cells) of the same compound?
Answer: The value was “less sensitive than neurons”.

Question: What about the “sensitivity to T-peptide toxicity relative to neuronal cell types” value (kidney fibroblasts) of the same compound?
Answer: Its value is “much less sensitive”.
